Results reported in patent US12679878B2, “CRF2 receptor agonists and their use in therapy” (SANOFI, priority 2020, dated 2026).
Like-named read-outs stand apart in the source and are kept apart here. Starred links: 1 amine or outer side, 2 acyl side, 3 side chain; linkers in the order of their positions; H or OH if unused. Non-standard residues stand in square brackets, D forms with d. Residues, ends and D or L forms follow the SMILES beside them. Groups on a side chain read outwards from the residue. No end group written: not given here. *: point of attachment. C18 diacid = O=C(O)CCCCCCCCCCCCCCCCC(=O)*; γGlu = O=C(O)[C@H](CCC(=O)[*:2])N[*:1]; Palmitoyl = CCCCCCCCCCCCCCCC(=O)*; AEEA = NCCOCCOCC(=O)O; Aib = CC(C)(N)C(=O)O

T1: human CRF2α receptor (Homo sapiens, UniProt Q13324)
T1 construct: expressed in transfected cells; host or cells: TeloHEAC
T1 sequence (Q13324 1-411): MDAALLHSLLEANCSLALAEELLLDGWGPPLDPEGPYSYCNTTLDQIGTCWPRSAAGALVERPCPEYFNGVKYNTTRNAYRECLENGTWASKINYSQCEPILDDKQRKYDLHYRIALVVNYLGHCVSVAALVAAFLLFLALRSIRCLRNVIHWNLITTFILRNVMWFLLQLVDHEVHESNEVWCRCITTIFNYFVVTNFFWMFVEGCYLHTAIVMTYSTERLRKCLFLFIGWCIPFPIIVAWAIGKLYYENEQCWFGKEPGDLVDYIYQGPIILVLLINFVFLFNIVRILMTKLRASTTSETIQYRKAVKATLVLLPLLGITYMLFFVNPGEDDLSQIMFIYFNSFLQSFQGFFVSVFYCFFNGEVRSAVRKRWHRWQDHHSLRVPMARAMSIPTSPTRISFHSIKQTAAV

T2: CRF1R receptor (Homo sapiens, UniProt P34998)
T2 construct: host or cells: CHO-K1 clone 2
T2 sequence (P34998 24-415): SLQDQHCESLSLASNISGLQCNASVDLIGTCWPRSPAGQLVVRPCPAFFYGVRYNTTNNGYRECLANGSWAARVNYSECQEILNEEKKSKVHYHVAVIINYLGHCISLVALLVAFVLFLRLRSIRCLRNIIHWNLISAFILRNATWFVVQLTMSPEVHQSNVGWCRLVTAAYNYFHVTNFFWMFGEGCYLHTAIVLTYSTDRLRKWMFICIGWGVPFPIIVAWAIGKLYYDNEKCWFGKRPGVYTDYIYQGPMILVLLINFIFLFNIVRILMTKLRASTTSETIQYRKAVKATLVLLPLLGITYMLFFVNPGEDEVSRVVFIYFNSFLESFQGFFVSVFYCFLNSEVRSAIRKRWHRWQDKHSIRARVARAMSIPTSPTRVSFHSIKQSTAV

T3: anti-target CRF1R receptor (UniProt P34998 24-415, limits assumed)
T3 sequence (looked up): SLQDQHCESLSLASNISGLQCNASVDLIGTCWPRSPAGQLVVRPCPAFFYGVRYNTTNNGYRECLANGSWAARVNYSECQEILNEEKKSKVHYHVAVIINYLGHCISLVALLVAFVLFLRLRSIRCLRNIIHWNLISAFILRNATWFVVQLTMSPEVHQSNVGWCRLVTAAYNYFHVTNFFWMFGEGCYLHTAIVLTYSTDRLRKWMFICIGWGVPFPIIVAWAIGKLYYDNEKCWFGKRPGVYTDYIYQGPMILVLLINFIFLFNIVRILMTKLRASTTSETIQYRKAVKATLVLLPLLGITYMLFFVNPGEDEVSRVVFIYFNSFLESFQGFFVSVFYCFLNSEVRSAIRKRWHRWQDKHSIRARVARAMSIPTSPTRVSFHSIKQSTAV


What was measured:
[1] = target: T1, human CRF2α receptor; test: cAMP agonism at human CRF2 α receptor in TeloHEAC cells (Example 7); format: cell-based; conditions: cAMP HTRF, TeloHEAC cells stably expressing human CRF2 α
Outline: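 Steps: thaw and wash cells; suspend in 1×HBSS, 20 mM HEPES, 0 or 0.1% HSA, 2 mM IBMX; add compound, 30 min RT; lyse with HTRF reagents, 1 h; read 665/620 nm. EC50 calculated, E% versus 1000 nM UCN2.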

[2] = target: T2, CRF1R receptor; test: cAMP activity at anti-target CRF1R, CHO-K1 cell line clone 2 (Example 19.10); format: cell-based; conditions: CRF1R CHO-K1 clone 2; for EC50: 0% HSA, read-out: EC50 [nM] 0% HSA; for Emax: 100% = Sauvagine at 100 nM
Outline: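 A CRF1R-overexpressing CHO-K1 line (clone 2) was grown in F12/10% FBS/G418 and frozen in aliquots before use. The cAMP assay followed the preceding procedure, with 100% activation defined by Sauvagine at 100 nM.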

[3] = target: T3, anti-target CRF1R receptor; test: cell-based or functional assay
[4] = 0% HSA, read-out: EC50 [nM], 0% HSA
[5] = 0.1% HSA, read-out: EC50 [nM], 0.1% HSA

EC50 [1, 4]	EC50 [1, 5]	EC50 [2]	Emax [2]	EC50[nM] 0% HSA (cAMP, CRF1R-overexpression CHO cells) [3]	Emax (%) (cAMP, CRF1R-overexpression CHO cells) [3]	Molecule
0.07 nM	3.99 nM	> 100 nM	7.2%			CC[C@H](C)[C@H](N)C(=O)N[C@H](C(=O)N[C@@H](CC(C)C)C(=O)N[C@@H](CO)C(=O)N[C@@H](CC(C)C)C(=O)N[C@@H](CC(=O)O)C(=O)N[C@@H](C(=O)N1CCC[C@H]1C(=O)N[C@H](C(=O)NCC(=O)N[C@@H](CC(C)C)C(=O)N[C@@H](CCCCNC(=O)COCCOCCNC(=O)COCCOCCNC(=O)CC[C@H](NC(=O)CCCCCCCCCCCCCCCCC(=O)O)C(=O)O)C(=O)N[C@@H](CCC(N)=O)C(=O)N[C@H](C(=O)N[C@@H](CC(C)C)C(=O)N[C@@H](CC(C)C)C(=O)N[C@@H](CCCCN)C(=O)N[C@@H](CCC(N)=O)C(=O)N[C@@H](CCC(=O)O)C(=O)N[C@@H](CCCNC(=N)N)C(=O)N[C@@H](CCC(N)=O)C(=O)N[C@@H](CCCCN)C(=O)N[C@@H](CCCCN)C(=O)NC(C)(C)C(=O)N[C@@H](CCCNC(=N)N)C(=O)N[C@@H](CCC(N)=O)C(=O)N[C@@H](CCC(N)=O)C(=O)N[C@@H](C)C(=O)N[C@@H](CCC(=O)O)C(=O)N[C@H](C(=O)N[C@@H](CC(N)=O)C(=O)N[C@@H](CCCCN)C(=O)N[C@@H](CCCNC(=N)N)C(=O)N[C@H](C(=O)N[C@@H](CC(C)C)C(=O)N[C@@H](CCC(=O)O)C(=O)N[C@@H](CCCNC(=N)N)C(=O)N[C@H](C(N)=O)C(C)C)[C@@H](C)CC)[C@@H](C)O)[C@@H](C)CC)[C@@H](C)CC)C(C)C)C(C)C [compound 150] (H-IVLSLD[dV]PIGLK([AEEA-AEEA-γGlu-C18 diacid])QILLKQERQKK[Aib]RQQAETNKRILERV-NH2; N-terminus assumed)
				> 1000 nM	17.4%	IVLSLDVPIGLK([γGlu-Palmitoyl])QKLLKQEKQEKEKQQAETNAKILAQV-NH2 (N-terminus assumed; SMILES CCCCCCCCCCCCCCCC(=O)N[C@@H](CCC(=O)NCCCC[C@H](NC(=O)[C@H](CC(C)C)NC(=O)CNC(=O)[C@@H](NC(=O)[C@@H]1CCCN1C(=O)[C@@H](NC(=O)[C@H](CC(=O)O)NC(=O)[C@H](CC(C)C)NC(=O)[C@H](CO)NC(=O)[C@H](CC(C)C)NC(=O)[C@@H](NC(=O)[C@@H](N)[C@@H](C)CC)C(C)C)C(C)C)[C@@H](C)CC)C(=O)N[C@@H](CCC(N)=O)C(=O)N[C@@H](CCCCN)C(=O)N[C@@H](CC(C)C)C(=O)N[C@@H](CC(C)C)C(=O)N[C@@H](CCCCN)C(=O)N[C@@H](CCC(N)=O)C(=O)N[C@@H](CCC(=O)O)C(=O)N[C@@H](CCCCN)C(=O)N[C@@H](CCC(N)=O)C(=O)N[C@@H](CCC(=O)O)C(=O)N[C@@H](CCCCN)C(=O)N[C@@H](CCC(=O)O)C(=O)N[C@@H](CCCCN)C(=O)N[C@@H](CCC(N)=O)C(=O)N[C@@H](CCC(N)=O)C(=O)N[C@@H](C)C(=O)N[C@@H](CCC(=O)O)C(=O)N[C@H](C(=O)N[C@@H](CC(N)=O)C(=O)N[C@@H](C)C(=O)N[C@@H](CCCCN)C(=O)N[C@H](C(=O)N[C@@H](CC(C)C)C(=O)N[C@@H](C)C(=O)N[C@@H](CCC(N)=O)C(=O)N[C@H](C(N)=O)C(C)C)[C@@H](C)CC)[C@@H](C)O)C(=O)O) [peptide of SEQ ID NO: 4]
				> 1000 nM	37.4%	IVLSLDVPIGLK([γGlu-Palmitoyl])QKLLKQQRQRKERQQAETNARILARV-NH2 (N-terminus assumed; SMILES CCCCCCCCCCCCCCCC(=O)N[C@@H](CCC(=O)NCCCC[C@H](NC(=O)[C@H](CC(C)C)NC(=O)CNC(=O)[C@@H](NC(=O)[C@@H]1CCCN1C(=O)[C@@H](NC(=O)[C@H](CC(=O)O)NC(=O)[C@H](CC(C)C)NC(=O)[C@H](CO)NC(=O)[C@H](CC(C)C)NC(=O)[C@@H](NC(=O)[C@@H](N)[C@@H](C)CC)C(C)C)C(C)C)[C@@H](C)CC)C(=O)N[C@@H](CCC(N)=O)C(=O)N[C@@H](CCCCN)C(=O)N[C@@H](CC(C)C)C(=O)N[C@@H](CC(C)C)C(=O)N[C@@H](CCCCN)C(=O)N[C@@H](CCC(N)=O)C(=O)N[C@@H](CCC(N)=O)C(=O)N[C@@H](CCCNC(=N)N)C(=O)N[C@@H](CCC(N)=O)C(=O)N[C@@H](CCCNC(=N)N)C(=O)N[C@@H](CCCCN)C(=O)N[C@@H](CCC(=O)O)C(=O)N[C@@H](CCCNC(=N)N)C(=O)N[C@@H](CCC(N)=O)C(=O)N[C@@H](CCC(N)=O)C(=O)N[C@@H](C)C(=O)N[C@@H](CCC(=O)O)C(=O)N[C@H](C(=O)N[C@@H](CC(N)=O)C(=O)N[C@@H](C)C(=O)N[C@@H](CCCNC(=N)N)C(=O)N[C@H](C(=O)N[C@@H](CC(C)C)C(=O)N[C@@H](C)C(=O)N[C@@H](CCCNC(=N)N)C(=O)N[C@H](C(N)=O)C(C)C)[C@@H](C)CC)[C@@H](C)O)C(=O)O) [peptide of SEQ ID NO: 5]

The remaining lines, values behind:

Molecule	EC50 [1, 4]	EC50 [1, 5]	EC50 [2]	Emax [2]	EC50[nM] 0% HSA (cAMP, CRF1R-overexpression CHO cells) [3]	Emax (%) (cAMP, CRF1R-overexpression CHO cells) [3]
CC[C@H](C)[C@H](N)C(=O)N[C@H](C(=O)N[C@@H](CC(C)C)C(=O)N[C@@H](CO)C(=O)N[C@@H](CC(C)C)C(=O)N[C@@H](CC(=O)O)C(=O)N[C@H](C(=O)N1CCC[C@H]1C(=O)N[C@H](C(=O)N[C@@H](CCCCN)C(=O)N[C@@H](CC(C)C)C(=O)N[C@@H](CCCCNC(=O)COCCOCCNC(=O)COCCOCCNC(=O)CC[C@H](NC(=O)CCCCCCCCCCCCCCCCC(=O)O)C(=O)O)C(=O)N[C@@H](CCC(N)=O)C(=O)N[C@H](C(=O)N[C@@H](CC(C)C)C(=O)N[C@@H](CC(C)C)C(=O)N[C@@H](CCCCN)C(=O)N[C@@H](CCC(N)=O)C(=O)N[C@@H](CCC(=O)O)C(=O)N[C@@H](CCCNC(=N)N)C(=O)N[C@@H](CCC(N)=O)C(=O)N[C@@H](CCCCN)C(=O)N[C@@H](CCCCN)C(=O)NC(C)(C)C(=O)N[C@@H](CCCNC(=N)N)C(=O)N[C@@H](CCC(=O)O)C(=O)N[C@@H](CCC(N)=O)C(=O)N[C@@H](C)C(=O)N[C@@H](CCC(=O)O)C(=O)N[C@H](C(=O)N[C@@H](CC(N)=O)C(=O)N[C@@H](CCCCN)C(=O)N[C@@H](CCCNC(=N)N)C(=O)N[C@H](C(=O)N[C@@H](CC(C)C)C(=O)N[C@@H](CCC(=O)O)C(=O)N[C@@H](CCCNC(=N)N)C(=O)N[C@H](C(N)=O)C(C)C)[C@@H](C)CC)[C@@H](C)O)[C@@H](C)CC)[C@@H](C)CC)C(C)C)C(C)C [compound 152] (H-IVLSLDVPIKLK([AEEA-AEEA-γGlu-C18 diacid])QILLKQERQKK[Aib]REQAETNKRILERV-NH2; N-terminus assumed)	0.09 nM	4.94 nM	> 100 nM	4.9%		
CC[C@H](C)[C@H](N)C(=O)N[C@H](C(=O)N[C@@H](CC(C)C)C(=O)N[C@@H](CO)C(=O)N[C@@H](CC(C)C)C(=O)N[C@@H](CC(=O)O)C(=O)N[C@H](C(=O)N1CCC[C@H]1C(=O)N[C@H](C(=O)NCC(=O)N[C@@H](CC(C)C)C(=O)N[C@@H](CCCCNC(=O)COCCOCCNC(=O)COCCOCCNC(=O)CC[C@H](NC(=O)CCCCCCCCCCCCCCCCC(=O)O)C(=O)O)C(=O)N[C@@H](CCC(N)=O)C(=O)N[C@H](C(=O)N[C@@H](CC(C)C)C(=O)N[C@@H](CC(C)C)C(=O)N[C@@H](CCCCN)C(=O)N[C@@H](CCC(N)=O)C(=O)N[C@@H](CCC(=O)O)C(=O)N[C@@H](CCCNC(=N)N)C(=O)N[C@@H](CCC(N)=O)C(=O)N[C@@H](CCCCN)C(=O)N[C@@H](CCCCN)C(=O)NC(C)(C)C(=O)N[C@@H](CCCNC(=N)N)C(=O)N[C@@H](CCC(=O)O)C(=O)N[C@@H](CCC(N)=O)C(=O)N[C@@H](C)C(=O)N[C@@H](CCC(=O)O)C(=O)N[C@H](C(=O)N[C@@H](CC(N)=O)C(=O)N[C@@H](C)C(=O)N[C@@H](CCC(N)=O)C(=O)N[C@H](C(=O)N[C@@H](CC(C)C)C(=O)N[C@@H](C)C(=O)N[C@@H](CCC(N)=O)C(=O)N[C@H](C(N)=O)C(C)C)[C@@H](C)CC)[C@@H](C)O)[C@@H](C)CC)[C@@H](C)CC)C(C)C)C(C)C [compound 156] (H-IVLSLDVPIGLK([AEEA-AEEA-γGlu-C18 diacid])QILLKQERQKK[Aib]REQAETNAQILAQV-NH2; N-terminus assumed)	1.06 nM		> 100 nM	4%		
